Results: the Kinase Knowledgebase extract (Sharma et al. 2016)

Biological target: MAPK14 (human) (UniProt Q16539)
Experiment: Inhibition of MAPK14 Kinase Activity

Sequence of MAPK14 (human) (Q16539 whole entry, looked up): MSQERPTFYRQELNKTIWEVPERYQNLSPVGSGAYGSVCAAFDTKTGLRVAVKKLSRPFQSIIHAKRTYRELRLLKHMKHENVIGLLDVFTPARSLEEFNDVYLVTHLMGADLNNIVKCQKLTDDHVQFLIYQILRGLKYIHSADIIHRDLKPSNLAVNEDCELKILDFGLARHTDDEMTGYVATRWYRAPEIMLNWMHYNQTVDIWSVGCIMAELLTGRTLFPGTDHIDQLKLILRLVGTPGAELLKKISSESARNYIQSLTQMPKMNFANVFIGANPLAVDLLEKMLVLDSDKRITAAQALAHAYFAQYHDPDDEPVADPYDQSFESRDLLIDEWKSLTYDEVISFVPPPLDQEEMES

IC50, ≤ 10 µM:
Cc1ccccc1CC1COC(=O)N(c2c(Cl)cccc2Cl)C1 (stereo not given)
O=C1CCC(Cc2ccc(F)cc2F)CN1c1c(Cl)ncc(CO)c1Cl (stereo not given)
O=C1CCC(Oc2ccccc2F)CN1c1c(Cl)ccnc1Cl (stereo not given)
O=C1CCC(Sc2ccccc2F)CN1c1c(Cl)cncc1Cl (stereo not given)
Cc1cccc(C)c1N1CC(Cc2ccccc2C(=O)O)CCC1=O (stereo not given)
O=C(CCCCO)Nc1cc(Cl)c(N2CC(Cc3ccc(F)cc3F)CCC2=O)c(Cl)c1 (stereo not given)
NC(=O)NCCNc1cc(Cl)c(N2CC(Cc3ccc(F)cc3F)CCC2=O)c(Cl)c1 (stereo not given)
CN1CC(Cc2ccc(F)cc2F)CN(c2c(Cl)cc(NC(=O)Cc3ccccc3)cc2Cl)C1=O (stereo not given)
O=C1CCC(Cc2cc(F)cc(F)c2)CN1c1c(Cl)csc1Cl (stereo not given)
NC1CC(Cl)C(N2CC(Oc3ccc(F)cc3F)CCC2=O)C(Cl)C1 (stereo not given)
Cc1ccc(SC2CCC(=O)N(c3c(Cl)cncc3Cl)C2)c(C)c1 (stereo not given)
O=C1CCC(Sc2cc(Cl)cc(Cl)c2)CN1c1c(Cl)ccnc1Cl (stereo not given)
O=C1CCC(Sc2ccccc2Cl)CN1c1c(Cl)cccc1Cl (stereo not given)
O=C1SCC(Cc2ccc(F)cc2F)CN1c1c(Cl)cc(O)cc1Cl (stereo not given)
O=C1CCC(Cc2ccc(F)cc2F)CN1c1c(Cl)ccnc1Cl (stereo not given)
O=C1CCC(Sc2cc(Cl)cc(Cl)c2)CN1c1c(Cl)cccc1Cl (stereo not given)
O=C(O)/C=C/c1ccccc1CC1CCC(=O)N(c2c(Cl)cccc2Cl)C1 (stereo not given)
CCOC(=O)CN(C(=O)OC(C)(C)C)c1cc(Cl)c(N2CC(Cc3ccc(F)cc3F)CCC2=O)c(Cl)c1 (stereo not given)
Cc1ccccc1SC1CCC(=O)N(C2C(Cl)CCCC2Cl)C1 (stereo not given)
CC(=O)Nc1cnc(Cl)c(N2CC(Oc3ccc(F)cc3F)CCC2=O)c1Cl (stereo not given)
